Values after ≈ are worked out from the molar mass of the structure shown. Active and inactive are the calls of the source. No cut-off for these calls is given here.
Tests used:
[1] = test system: Haemophilus influenzae; assay: Antimicrobial activity against Haemophilus influenzae ATC 12699 after 24 hrs by broth microdilution method; assay type: functional; conditions: ATC 12699, 24 h
[2] = test system: Haemophilus influenzae; assay: Antimicrobial activity against Haemophilus influenzae ATC 12699 compound preincubated with 0.1 M hydrochoric acid for 40 mins measured after 24 hrs by broth microdilution method; assay type: functional
[3] = test system: Streptococcus pyogenes; assay: Antimicrobial activity against Streptococcus pyogenes after 24 hrs by broth microdilution method; assay type: functional
[4] = test system: Streptococcus pyogenes; assay: Antimicrobial activity against Streptococcus pyogenes compound preincubated with 0.1 M hydrochoric acid for 40 mins measured after 24 hrs by broth microdilution method; assay type: functional
[5] = test system: Burkholderia cepacia; assay: Antimicrobial activity against Burkholderia cepacia after 24 hrs by broth microdilution method; assay type: functional, organism-based
[6] = test system: Escherichia coli; assay: Binding affinity to Escherichia coli MRE 600 50S ribosome in 2M LiCl in buffered D2O at pH 7.4 by NMR analysis
[7] = test system: Staphylococcus aureus; assay: Antimicrobial activity against Staphylococcus aureus ACC 601065 after 24 hrs by broth microdilution method; assay type: functional; conditions: ACC 601065, 24 h
[8] = test system: Burkholderia cepacia; assay: Antimicrobial activity against Burkholderia cepacia compound preincubated with 0.1 M hydrochoric acid for 40 mins measured after 24 hrs by broth microdilution method; assay type: functional, organism-based
[9] = test system: Staphylococcus aureus; assay: Antimicrobial activity against Staphylococcus aureus ACC 601065 compound preincubated with 0.1 M hydrochoric acid for 40 mins measured after 24 hrs by broth microdilution method; assay type: functional
[10] = test system: Escherichia coli; assay: Binding affinity to Escherichia coli MRE 600 30S ribosome in 2M LiCl in buffered D2O at pH 7.4 by NMR analysis

Row | MIC [1] [µg/mL] | MIC [2] [µg/mL] | MIC [3] [µg/mL] | MIC [4] [µg/mL] | MIC [5] | Activity [6] | MIC [7] [µg/mL] | MIC [8] | MIC [9] [µg/mL] | Activity [10] | SMILES
1 | 2.3 (≈ 3.2 µM) | 3.6 (≈ 5.01 µM) | 0.2 (≈ 0.279 µM) | 0.3 (≈ 0.418 µM) | inactive | Active | 0.7 (≈ 0.975 µM) | inactive | 1.4 (≈ 1.95 µM) | inactive | CC[C@H]1OC(=O)[C@H](C)[C@@H](O[C@H]2C[C@@](C)(OC)[C@@H](O)[C@H](C)O2)[C@H](C)[C@@H](O[C@@H]2O[C@H](C)C[C@H](N(C)C)[C@H]2O)[C@](C)(O)C[C@@H](C)C(=O)[C@H](C)[C@@H](O)[C@H]1C [BERYTHROMYCIN]
2 | 0.6 (≈ 0.802 µM) | 1.8 (≈ 2.41 µM) | 0.2 (≈ 0.267 µM) | 0.3 (≈ 0.401 µM) | inactive | – | 0.6 (≈ 0.802 µM) | inactive | 0.9 (≈ 1.2 µM) | – | CC[C@H]1OC(=O)[C@H](C)[C@@H](O[C@H]2C[C@@](C)(OC)[C@@H](O)[C@H](C)O2)[C@H](C)[C@@H](O[C@@H]2O[C@H](C)C[C@H](N(C)C)[C@H]2O)[C@](C)(OC)C[C@@H](C)C(=O)[C@H](C)[C@@H](O)[C@]1(C)O [CLARITHROMYCIN]
3 | 2.2 (≈ 3 µM) | > 4 | 0.2 (≈ 0.273 µM) | 1 (≈ 1.36 µM) | inactive | – | 0.9 (≈ 1.23 µM) | inactive | > 8 | – | CC[C@H]1OC(=O)[C@H](C)[C@@H](O[C@H]2C[C@@](C)(OC)[C@@H](O)[C@H](C)O2)[C@H](C)[C@@H](O[C@@H]2O[C@H](C)C[C@H](N(C)C)[C@H]2O)[C@](C)(O)C[C@@H](C)C(=O)[C@H](C)[C@@H](O)[C@]1(C)O [ERYTHROMYCIN]

Reference: ChEMBL document CHEMBL3217711, “Erythromycin B: conformational analysis and antibacterial activity” (2011)
